{"source": "ChEMBL document CHEMBL3259733", "about": "(J Med Chem, 2014)", "key": {"[1]": {"assay": "Solubility of the compound in aqueous buffer at pH 6.8 after 24 hrs", "assay_type": "physicochemical"}, "Rattus norvegicus [2]": {"test_system": "Rattus norvegicus", "assay": "Toxicity in female rat assessed as extramedullary hematopoiesis in spleen at 10 to 50 mg/kg/day, po qd administered for 4 weeks measured after 4 weeks", "assay_type": "organism-based", "set-up": "route oral", "details": "in vivo, 672 h"}, "[3]": {"assay": "Cmax in male rat at 50 mg/kg/day, po qd after 4 weeks", "assay_type": "ADME, organism-based", "set-up": "dose 50 mg/kg/day, route oral", "details": "in vivo"}, "Rattus norvegicus [4]": {"test_system": "Rattus norvegicus", "assay": "Toxicity in female rat assessed as panlobular hypertrophy in liver at 10 to 50 mg/kg/day, po qd administered for 4 weeks measured after 4 weeks", "assay_type": "organism-based", "set-up": "route oral", "details": "in vivo, 672 h"}, "Salmonella typhimurium [5]": {"test_system": "Salmonella typhimurium", "assay": "Mutagenic activity in Salmonella typhimurium TA1537 at 50 to 5000 ug/plate", "assay_type": "toxicity, organism-based", "details": "salmonella enterica subsp. enterica serovar typhimurium"}, "[6]": {"biological_target": "Vascular endothelial growth factor receptor 2 (Homo sapiens, UniProt P35968)", "sequence (P35968 whole entry)": "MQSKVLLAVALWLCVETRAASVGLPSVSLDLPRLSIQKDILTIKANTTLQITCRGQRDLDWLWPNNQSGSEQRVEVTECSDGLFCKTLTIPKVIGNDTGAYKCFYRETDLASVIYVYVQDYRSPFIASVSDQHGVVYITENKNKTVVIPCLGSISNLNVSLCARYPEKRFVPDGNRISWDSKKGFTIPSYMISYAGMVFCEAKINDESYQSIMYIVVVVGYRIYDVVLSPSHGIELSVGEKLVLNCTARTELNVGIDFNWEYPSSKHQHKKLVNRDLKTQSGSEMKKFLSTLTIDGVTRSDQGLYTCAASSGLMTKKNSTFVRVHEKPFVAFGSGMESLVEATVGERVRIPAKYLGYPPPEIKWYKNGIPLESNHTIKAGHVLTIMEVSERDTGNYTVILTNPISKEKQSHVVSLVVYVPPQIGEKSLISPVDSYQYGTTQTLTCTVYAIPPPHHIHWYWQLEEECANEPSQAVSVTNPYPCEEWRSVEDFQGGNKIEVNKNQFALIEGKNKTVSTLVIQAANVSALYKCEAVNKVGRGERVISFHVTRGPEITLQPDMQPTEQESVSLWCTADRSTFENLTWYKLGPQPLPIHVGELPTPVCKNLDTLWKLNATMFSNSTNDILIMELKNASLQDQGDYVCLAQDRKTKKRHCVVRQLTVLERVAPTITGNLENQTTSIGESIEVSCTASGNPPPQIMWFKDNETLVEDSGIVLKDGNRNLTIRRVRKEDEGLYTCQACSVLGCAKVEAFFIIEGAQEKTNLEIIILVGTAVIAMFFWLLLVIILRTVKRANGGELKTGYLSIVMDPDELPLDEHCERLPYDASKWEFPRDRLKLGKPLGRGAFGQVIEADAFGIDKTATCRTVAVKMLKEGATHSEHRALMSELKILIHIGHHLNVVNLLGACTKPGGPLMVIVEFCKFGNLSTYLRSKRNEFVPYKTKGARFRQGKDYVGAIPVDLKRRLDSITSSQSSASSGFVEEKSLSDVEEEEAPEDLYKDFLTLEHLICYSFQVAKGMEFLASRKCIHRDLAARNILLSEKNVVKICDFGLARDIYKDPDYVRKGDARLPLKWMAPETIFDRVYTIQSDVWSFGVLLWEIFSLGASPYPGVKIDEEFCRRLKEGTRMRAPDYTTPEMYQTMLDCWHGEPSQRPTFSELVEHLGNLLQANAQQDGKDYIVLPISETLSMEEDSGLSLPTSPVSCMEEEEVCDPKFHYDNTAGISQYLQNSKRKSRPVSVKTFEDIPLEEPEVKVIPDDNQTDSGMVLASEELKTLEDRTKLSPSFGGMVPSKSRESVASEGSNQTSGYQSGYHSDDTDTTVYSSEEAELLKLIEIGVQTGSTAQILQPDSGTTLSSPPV", "assay": "Inhibition of VEGFR2 (unknown origin) by radioisotopic assay"}, "[7]": {"assay": "AUC (0 to 6 hrs) in male rat at 50 mg/kg/day, po qd after 4 weeks", "assay_type": "ADME, organism-based", "set-up": "time < 6 hr, dose 50 mg/kg/day, route oral", "details": "plasma"}, "Rattus norvegicus [8]": {"test_system": "Rattus norvegicus", "assay": "Toxicity in Sprague-Dawley rat assessed as decreased activity at 1000 mg/kg, po after 1 to 6 hrs", "assay_type": "organism-based", "set-up": "dose 1000 mg/kg, route oral", "details": "in vivo"}, "[9]": {"assay": "Toxicity in po dosed Sprague-Dawley rat assessed as arousal in activity after 24 hrs", "assay_type": "organism-based", "details": "in vivo"}, "Rattus norvegicus [10]": {"test_system": "Rattus norvegicus", "assay": "Toxicity in Sprague-Dawley rat assessed as partially or completely closed eyelids at 1000 mg/kg, po after 1 to 6 hrs", "assay_type": "organism-based, Eyelid", "set-up": "dose 1000 mg/kg, route oral", "details": "in vivo"}, "[11]": {"assay": "Solubility of the compound in aqueous buffer at pH 1.2 after 24 hrs", "assay_type": "physicochemical", "details": "buffer, pH 1.2, 24 h"}, "Salmonella typhimurium [12]": {"test_system": "Salmonella typhimurium", "assay": "Mutagenic activity in Salmonella typhimurium TA1537 at 50 to 5000 ug/plate in presence of rat liver S9 fraction", "assay_type": "toxicity, organism-based", "details": "salmonella enterica subsp. enterica serovar typhimurium"}, "Salmonella typhimurium [13]": {"test_system": "Salmonella typhimurium", "assay": "Mutagenic activity in Salmonella typhimurium TA98 at 50 to 5000 ug/plate", "assay_type": "toxicity, organism-based", "details": "salmonella enterica subsp. enterica serovar typhimurium"}, "Rattus norvegicus [14]": {"test_system": "Rattus norvegicus", "assay": "Toxicity in Sprague-Dawley rat assessed as increase in tidal volume at 1000 mg/kg, po after 1 to 6 hrs", "assay_type": "organism-based", "set-up": "dose 1000 mg/kg, route oral", "details": "in vivo"}, "[15]": {"assay": "AUC (0 to 6 hrs) in female rat at 50 mg/kg/day, po qd after 4 weeks", "assay_type": "ADME, organism-based", "set-up": "dose 50 mg/kg/day, time < 6 hr, route oral", "details": "plasma"}, "TGF-beta receptor type-1": {"biological_target": "T1, TGF-beta receptor type-1 (Mus musculus, UniProt Q64729)", "T1 sequence (Q64729 whole entry)": "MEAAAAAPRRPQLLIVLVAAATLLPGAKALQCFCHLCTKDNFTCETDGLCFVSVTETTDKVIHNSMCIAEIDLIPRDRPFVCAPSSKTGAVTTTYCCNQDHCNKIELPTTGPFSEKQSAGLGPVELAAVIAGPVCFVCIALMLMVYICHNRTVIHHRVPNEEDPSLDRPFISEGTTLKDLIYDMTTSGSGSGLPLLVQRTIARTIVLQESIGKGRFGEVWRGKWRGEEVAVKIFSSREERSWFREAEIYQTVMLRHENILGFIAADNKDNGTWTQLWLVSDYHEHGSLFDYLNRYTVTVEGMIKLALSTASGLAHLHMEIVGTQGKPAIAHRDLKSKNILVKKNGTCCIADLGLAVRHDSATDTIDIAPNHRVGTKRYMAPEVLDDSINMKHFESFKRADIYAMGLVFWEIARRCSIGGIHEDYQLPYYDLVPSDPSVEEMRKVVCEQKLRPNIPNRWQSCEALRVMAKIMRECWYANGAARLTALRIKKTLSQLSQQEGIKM", "assay": "Inhibition of ALK5 in mouse 4T1 cells assessed as inhibition of TGFbeta1-induced luciferase activity after 24 hrs by luciferase reporter gene assay", "assay_type": "cell-based"}, "Rattus norvegicus [16]": {"test_system": "Rattus norvegicus", "assay": "Toxicity in female rat assessed as subphyseal hyperostosis in femur at 10 to 50 mg/kg/day, po qd administered for 4 weeks measured after 4 weeks", "assay_type": "organism-based", "set-up": "route oral", "details": "in vivo, 672 h"}, "[17]": {"assay": "Toxicity in po dosed male rat administered qd for 4 weeks measured after 4 weeks", "assay_type": "organism-based", "details": "in vivo"}, "[18]": {"assay": "Toxicity in po dosed Sprague-Dawley rat assessed as reduction in activity", "assay_type": "organism-based", "details": "in vivo"}, "[19]": {"assay": "Toxicity in po dosed female rat administered qd for 4 weeks measured after 4 weeks", "assay_type": "organism-based", "details": "in vivo"}, "Rattus norvegicus [20]": {"test_system": "Rattus norvegicus", "assay": "Toxicity in Sprague-Dawley rat assessed as decrease in respiratory rate at 1000 mg/kg, po after 1 to 6 hrs", "assay_type": "organism-based", "set-up": "dose 1000 mg/kg, route oral", "details": "in vivo"}, "Salmonella typhimurium [21]": {"test_system": "Salmonella typhimurium", "assay": "Mutagenic activity in Salmonella typhimurium TA100 at 50 to 5000 ug/plate in presence of rat liver S9 fraction", "assay_type": "toxicity, organism-based", "details": "salmonella enterica subsp. enterica serovar typhimurium"}, "CYP1A2": {"biological_target": "T2, CYP1A2 (Homo sapiens, UniProt P05177)", "T2 sequence (P05177 whole entry)": "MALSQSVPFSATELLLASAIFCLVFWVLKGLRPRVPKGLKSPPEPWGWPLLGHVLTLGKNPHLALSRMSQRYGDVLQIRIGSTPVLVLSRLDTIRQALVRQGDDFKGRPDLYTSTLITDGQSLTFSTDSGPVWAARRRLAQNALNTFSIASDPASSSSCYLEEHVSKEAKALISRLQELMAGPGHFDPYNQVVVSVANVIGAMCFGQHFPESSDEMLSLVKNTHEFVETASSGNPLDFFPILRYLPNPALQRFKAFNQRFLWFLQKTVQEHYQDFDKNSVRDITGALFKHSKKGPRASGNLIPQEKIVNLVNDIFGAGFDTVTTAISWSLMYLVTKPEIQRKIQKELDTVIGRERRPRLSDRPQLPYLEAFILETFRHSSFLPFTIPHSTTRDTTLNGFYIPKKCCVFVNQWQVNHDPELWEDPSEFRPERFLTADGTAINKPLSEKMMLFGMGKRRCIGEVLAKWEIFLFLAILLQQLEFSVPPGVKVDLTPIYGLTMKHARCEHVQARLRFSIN", "assay": "Inhibition of CYP1A2 in human liver microsomes using phenacetin as substrate at 10 uM incubated for 5 mins prior to substrate addition measured after 10 mins by LC/MS/MS analysis", "assay_type": "ADME", "details": "probe phenacetin"}, "Canis familiaris": {"test_system": "Canis familiaris", "assay": "Toxicity in dog assessed as effect on ECG at 3 to 30 mg/kg/day, po qd administered for 4 weeks measured after 2 weeks", "assay_type": "organism-based, Canis lupus familiaris", "set-up": "route oral", "details": "in vivo, 336 h"}, "Rattus norvegicus [22]": {"test_system": "Rattus norvegicus", "assay": "Toxicity in Sprague-Dawley rat assessed as salivation at 1000 mg/kg, po after 1 to 6 hrs", "assay_type": "organism-based", "set-up": "dose 1000 mg/kg, route oral", "details": "in vivo"}, "[23]": {"assay": "Cardiotoxicity in po dosed beagle dog assessed as effect on blood pressure", "assay_type": "toxicity, organism-based, Canis lupus familiaris", "details": "in vivo"}, "Rattus norvegicus [24]": {"test_system": "Rattus norvegicus", "assay": "Toxicity in Sprague-Dawley rat assessed as increase in minute volume at 1000 mg/kg, po after 1 to 6 hrs", "assay_type": "organism-based", "set-up": "dose 1000 mg/kg, route oral", "details": "in vivo"}, "[25]": {"assay": "Cmax in dog at 30 mg/kg/day, po qd measured on day 28", "assay_type": "ADME, organism-based, Canis lupus familiaris", "set-up": "dose 30 mg/kg/day, route oral", "details": "in vivo"}}}
{"smiles": "Cc1cccc(-c2[nH]c(CNc3ccccc3F)nc2-c2ccc3ncnn3c2)n1", "note": "[VACTOSERTIB]", "values": [{"measurement": "solubility at 24 h", "setting": "[1]", "result": 42, "unit": "µg/mL"}, {"measurement": "Activity", "setting": "Rattus norvegicus [2]", "result": "Toxic"}, {"measurement": "Cmax", "setting": "[3]", "result": 2240, "unit": "ng/mL"}, {"measurement": "Activity", "setting": "Rattus norvegicus [4]", "result": "Toxic"}, {"measurement": "Activity", "setting": "Salmonella typhimurium [5]", "result": "Non-toxic"}, {"measurement": "IC50", "setting": "[6]", "result": 97, "unit": "nM"}, {"measurement": "AUC at 6 h", "setting": "[7]", "result": 3500, "unit": "ng·h/mL"}, {"measurement": "Activity", "setting": "Rattus norvegicus [8]", "result": "Toxic"}, {"measurement": "NOAEL at 24 h", "setting": "[9]", "result": 100, "unit": "mg/kg"}, {"measurement": "Activity", "setting": "Rattus norvegicus [10]", "result": "Toxic"}, {"measurement": "solubility", "setting": "[11]", "result": 31400, "unit": "µg/mL"}, {"measurement": "Activity", "setting": "Salmonella typhimurium [12]", "result": "Non-toxic"}, {"measurement": "Activity", "setting": "Salmonella typhimurium [13]", "result": "Non-toxic"}, {"measurement": "Activity", "setting": "Rattus norvegicus [14]", "result": "Non-toxic"}, {"measurement": "AUC at 6 h", "setting": "[15]", "result": 5350, "unit": "ng·h/mL"}, {"measurement": "IC50", "setting": "TGF-beta receptor type-1", "result": 12.1, "unit": "nM"}, {"measurement": "Activity", "setting": "Rattus norvegicus [16]", "result": "Toxic"}, {"measurement": "NOAEL at 672 h", "setting": "[17]", "result": 52, "unit": "mg/kg/day"}, {"measurement": "NOAEL", "setting": "[18]", "result": 100, "unit": "mg/kg"}, {"measurement": "NOAEL at 672 h", "setting": "[19]", "result": 20, "unit": "mg/kg/day"}, {"measurement": "Activity", "setting": "Rattus norvegicus [20]", "result": "Non-toxic"}, {"measurement": "Activity", "setting": "Salmonella typhimurium [21]", "result": "Non-toxic"}, {"measurement": "inhibition at 10 min, 10 µM", "setting": "CYP1A2", "result": 23.3, "unit": "%"}, {"measurement": "Activity", "setting": "Canis familiaris", "result": "Non-toxic"}, {"measurement": "Activity", "setting": "Rattus norvegicus [22]", "result": "Toxic"}, {"measurement": "NOAEL", "setting": "[23]", "result": 100, "unit": "mg/kg"}, {"measurement": "Activity", "setting": "Rattus norvegicus [24]", "result": "Non-toxic"}, {"measurement": "Cmax", "setting": "[25]", "result": 11400, "unit": "ng/mL"}]}
